Reference: patent publication US20260102383A1, “LPAR1 Inhibitors” (AbbVie Inc., priority 2024, published 2026)

Biological target: T1, human LPAR1 (Homo sapiens, UniProt Q92633)
T1 construct: host or cells: TangoEDG2-bla U2OS cells
Experiment: Arrestin assay (Arrestin Reporter EDG2-bla U2OS), inhibition of LPA-stimulated signal
Assay type: cell-based
Conditions: TangoEDG2-bla U2OS cells expressing human LPAR1; 0.25 μM LPA; read-out: Arrestin Reporter EDG2-bla U2OS Human Merged IC50
How it was run: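 IC50 comes from a variable-slope 4-parameter fit of % inhibition, calculated from the beta-lactamase FRET ratio (emission 460/530 nm, excitation 409 nm, 2 h development at RT). Compounds, 10 μM down to 0.00006 μM in 3-fold steps, were given 1 h before 0.25 μM final LPA for 3 h in TangoEDG2-bla U2OS cells.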

T1 sequence (Q92633 whole entry): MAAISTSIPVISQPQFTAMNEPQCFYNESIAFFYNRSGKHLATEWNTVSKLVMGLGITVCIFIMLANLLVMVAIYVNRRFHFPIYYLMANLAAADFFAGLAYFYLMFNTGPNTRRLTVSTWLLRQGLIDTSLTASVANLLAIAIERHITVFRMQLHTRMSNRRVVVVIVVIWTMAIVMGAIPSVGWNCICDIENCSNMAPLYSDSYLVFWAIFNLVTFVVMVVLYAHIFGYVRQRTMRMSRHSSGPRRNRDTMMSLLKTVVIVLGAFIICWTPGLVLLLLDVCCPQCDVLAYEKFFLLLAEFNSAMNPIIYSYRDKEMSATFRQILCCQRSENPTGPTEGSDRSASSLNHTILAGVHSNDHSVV

Compound | IC50 [nM]
CC(C)c1ccnn1C1(C(=O)Nc2ccc(Cl)cc2OC(F)F)CCN(CC2(C(=O)O)CCOC2)CC1 (stereo in doubt) [Compound 23, (3S)-3-[[4-[[4-chloro-2-(difluoromethoxy)phenyl]carbamoyl]-4-(5-isopropylpyrazol-1-yl)-1-piperidyl]methyl]tetrahydrofuran-3-carboxylic acid] | 28.4
CC(C)c1ccnn1C1(C(=O)Nc2ccc(Cl)cc2OC(F)F)CCN([C@H]2C[C@@](C(=O)O)(C(F)F)C2)CC1 [Compound 220, (1s,3s)-3-[4-[[4-chloro-2-(difluoromethoxy)phenyl]carbamoyl]-4-(5-isopropylpyrazol-1-yl)-1-piperidyl]-1-(difluoromethyl) cyclobutanccarboxylic acid] | 71.5
CO[C@]1(C(=O)O)C[C@@H](N2CCC(C(=O)Nc3ccc(Cl)cc3OC(F)F)(n3ncc(F)c3C(C)C)CC2)C1 [Compound 204, (1r,3r)-3-[4-[[4-chloro-2-(difluoromethoxy)phenyl]carbamoyl]-4-(4-fluoro-5-isopropyl-pyrazol-1-yl)-1-piperidyl]-1-methoxy-cyclobutanecarboxylic acid] | 46.9
COCCC(=O)N1CCC(CN2CCC(C(=O)Nc3ccc(Cl)cc3OC(F)F)(n3nccc3C(C)C)CC2)(C(=O)O)CC1 [Compound 54, 4-[[4-[[4-chloro-2-(difluoromethoxy)phenyl]carbamoyl]-4-(5-isopropylpyrazol-1-yl)-1-piperidyl]methyl]-1-(3-methoxypropanoyl) piperidine-4-carboxylic acid] | 56.5
CC(C)c1c(F)cnn1C1(C(=O)Nc2ccc(Cl)cc2OC(F)F)CCN([C@H]2C[C@](C)(C(=O)O)C2)CC1 [Compound 212, (1r,3r)-3-[4-[[4-chloro-2-(difluoromethoxy)phenyl]carbamoyl]-4-(4-fluoro-5-isopropyl-pyrazol-1-yl)-1-piperidyl]-1-methyl-cyclobutanecarboxylic acid] | 46.3
CC(C)c1ccnn1C1(C(=O)Nc2ccc(Cl)cc2OC(F)F)CCN(C[C@]2(C(=O)O)CCCO2)CC1 [Compound 21, (2S)-2-[[4-[[4-chloro-2-(difluoromethoxy)phenyl]carbamoyl]-4-(5-isopropylpyrazol-1-yl)-1-piperidyl]methyl] tetrabydrofuran-2-carboxylic acid] | 14.6
CC(C)c1ccnn1C1(C(=O)Nc2ccc(Cl)cc2OC(F)F)CCN(CC2(C(=O)O)CCN(C(=O)OCc3ccccc3)CC2)CC1 [Compound 8, 1-benzyloxycarbonyl-4-[[4-[[4-chloro-2-(difluoromethoxy)phenyl]carbamoyl]-4-(5-isopropylpyrazol-1-yl)-1-piperidyl]methyl]piperidine-4-carboxylic acid] | 3.31
CC1CCc2cnn(C3(C(=O)Nc4ccc(Cl)cc4OC(F)F)CCN([C@H]4C[C@@H](C(=O)O)C4)CC3)c21 (some centres unmarked) [Compound 104, (1s,3s)-3-[4-[[4-chloro-2-(difluoromethoxy)phenyl]carbamoyl]-4-(6-methyl-5,6-dibydro-4H-cyclopenta[c]pyrazol-1-yl)-1-piperidyl] cyclobutanecarboxylic acid] | 44.7
CC(C)c1ccnn1C1(C(=O)Nc2ccc(Cl)cc2OC(F)F)CCN(C[C@@]2(C(=O)O)CCCCO2)CC1 (single isomer, unassigned) [Compound 38] | 18.8
CC(C)c1ccnn1C1(C(=O)Nc2ccc(Cl)cc2OC(F)F)CCN(CC2(C(=O)O)CCN(C(=O)OC(C)(C)C)CC2)CC1 [Compound 4, 1-tert-butoxycarbonyl-4-[[4-[[4-chloro-2-(difluoromethoxy)phenyl]carbamoyl]-4-(5-isopropylpyrazol-1-yl)-1-piperidyl]methyl] piperidine-4-carboxylic acid] | 22.8
COC1(C(=O)O)CC(N2CCC(C(=O)Nc3ccc(Cl)cc3OC(F)F)(n3nccc3C(C)C)CC2)C1 (centres unmarked) [Compound 181, 3-[4-[[4-chloro-2-(difluoromethoxy)phenyl]carbamoyl]-4-(5-isopropylpyrazol-1-yl)-1-piperidyl]-1-methoxy-cyclobutanecarboxylic acid] | 87.7
CC(C)c1ccnn1C1(C(=O)Nc2ccc(Cl)cc2OC(F)F)CCN(CC2(C(=O)O)CCN(C(=O)C34CC(F)(C3)C4)CC2)CC1 [Compound 72, 4-[[4-[[4-chloro-2-(difluoromethoxy)phenyl]carbamoyl]-4-(5-isopropylpyrazol-1-yl)-1-piperidyl]methyl]-1-(3-fluorobicyclo[1.1.1]pentane-1-carbonyl)piperidine-4-carboxylic acid] | 18.8

Next, values leading:

IC50 [nM] | Compound
29.2 | CO[C@H]1C[C@H]([C@H](CN2CCC(C(=O)Nc3ccc(Cl)cc3OC(F)F)(n3nccc3C(C)C)CC2)C(=O)O)C1 [Compound 229, (2R)-3-[4-[[4-chloro-2-(difluoromethoxy)phenyl]carbamoyl]-4-(5-isopropylpyrazol-1-yl)-1-piperidyl]-2-((1r,3R)-3-methoxycyclobutyl) propanoic acid]
38.3 | CO[C@H]1C[C@@H]([C@@H](CN2CCC(C(=O)Nc3ccc(Cl)cc3OC(F)F)(n3nccc3C(C)C)CC2)C(=O)O)C1 [Compound 227, (2S)-3-[4-[[4-chloro-2-(difluoromethoxy)phenyl]carbamoyl]-4-(5-isopropylpyrazol-1-yl)-1-piperidyl]-2-((1s,3R)-3-methoxycyclobutyl) propanoic acid]
34.7 | CC(C)c1ccnn1C1(C(=O)Nc2ccc(Cl)cc2OC(F)F)CCN(CC(Cn2cccn2)C(=O)O)CC1 (centres unmarked) [Compound 129, 2-[[4-[[4-chloro-2-(difluoromethoxy)phenyl]carbamoyl]-4-(5-isopropylpyrazol-1-yl)-1-piperidyl]methyl]-3-pyrazol-1-yl-propanoic acid]
31.2 | Cc1cnn(CC(CN2CCC(C(=O)Nc3ccc(Cl)cc3OC(F)F)(n3nccc3C(C)C)CC2)C(=O)O)c1 (centres unmarked) [Compound 189, 2-[[4-[[4-chloro-2-(difluoromethoxy)phenyl]carbamoyl]-4-(5-isopropylpyrazol-1-yl)-1-piperidyl]methyl]-3-(4-methylpyrazol-1-yl)propanoic acid]
45.7 | CC(C)c1ccnn1C1(C(=O)Nc2ccc(Cl)cc2OC(F)F)CCN(C[C@@H](C)C(C)(C)C(=O)O)CC1 [Compound 130]
14.5 | CC(C)c1ccnn1C1(C(=O)Nc2ccc(Cl)cc2OC(F)F)CCN(CC(C(=O)O)c2cccnc2)CC1 (centres unmarked) [Compound 17, 3-[4-[[4-chloro-2-(difluoromethoxy)phenyl]carbamoyl]-4-(5-isopropylpyrazol-1-yl)-1-piperidyl]-2-(3-pyridyl)propanoic acid]
46 | COc1cnn(C[C@H](CN2CCC(C(=O)Nc3ccc(Cl)cc3OC(F)F)(n3nccc3C(C)C)CC2)C(=O)O)c1 [Compound 202, (2S)-2-[[4-[[4-chloro-2-(difluoromethoxy)phenyl]carbamoyl]-4-(5-isopropylpyrazol-1-yl)-1-piperidyl]methyl]-3-(4-methoxypyrazol-1-yl)propanoic acid]
36.3 | CC(C)c1ccnn1C1(C(=O)Nc2ccc(Cl)cc2OC(F)F)CCN(C[C@@H](CO)C(=O)O)CC1 [Compound 182]
64.1 | CC(C)c1ccnn1C1(C(=O)Nc2ccc(Cl)cc2OC(F)F)CCN(C[C@H](C(=O)O)c2cnn(C)c2)CC1 (single isomer, unassigned) [Compound 154]
113 | CC(C)c1ccnn1C1(C(=O)Nc2ccc(Cl)cc2OC(F)F)CCN(CC(CN2CCOCC2)C(=O)O)CC1 (centres unmarked) [Compound 125, 2-[[4-[[4-chloro-2-(difluoromethoxy)phenyl]carbamoyl]-4-(5-isopropylpyrazol-1-yl)-1-piperidyl]methyl]-3-morpholino-propanoic acid]
120 | CC(C)c1ccnn1C1(C(=O)Nc2ccc(Cl)cc2OC(F)F)CCN(C[C@H](C(=O)O)N2CCOC(C)(C)C2)CC1 [Compound 166]
73.2 | CC(C)c1ccnn1C1(C(=O)Nc2ccc(Cl)cc2OC(F)F)CCN(CC2(CC(=O)O)CC2)CC1 [Compound 49, 2-[1-[[4-[[4-chloro-2-(difluoromethoxy)phenyl]carbamoyl]-4-(5-isopropylpyrazol-1-yl)-1-piperidyl]methyl]cyclopropyl]acetic acid]
46.7 | CC(C)c1ccnn1C1(C(=O)Nc2ccc(Cl)cc2OC(F)F)CCN(CC(C(=O)O)C2CCOC2)CC1 (centres unmarked) [Compound 136, 3-[4-[[4-chloro-2-(difluoromethoxy)phenyl]carbamoyl]-4-(5-isopropylpyrazol-1-yl)-1-piperidyl]-2-tetrahydrofuran-3-yl-propanoic acid]
49 | C=C(CN1CCC(C(=O)Nc2ccc(Cl)cc2OC(F)F)(n2nccc2C(C)C)CC1)C(C)(C)C(=O)O [Compound 117, 3-[[4-[[4-chloro-2-(difluoromethoxy)phenyl]carbamoyl]-4-(5-isopropylpyrazol-1-yl)-1-piperidyl]methyl]-2,2-dimethyl-but-3-enoic acid]
64.1 | COc1ccc(C(C)(CN2CCC(C(=O)Nc3ccc(Cl)cc3OC(F)F)(n3nccc3C(C)C)CC2)C(=O)O)cc1 (centres unmarked) [Compound 50, 3-[4-[[4-chloro-2-(difluoromethoxy)phenyl]carbamoyl]-4-(5-isopropylpyrazol-1-yl)-1-piperidyl]-2-(4-methoxyphenyl)-2-methyl-propanoic acid]
122 | CCOC(=O)N1CC(CN2CCC(C(=O)Nc3ccc(Cl)cc3OC(F)F)(n3nccc3C(C)C)CC2)(C(=O)O)C1 [Compound 97, 3-[[4-[[4-chloro-2-(difluoromethoxy)phenyl]carbamoyl]-4-(5-isopropylpyrazol-1-yl)-1-piperidyl]methyl]-1-ethoxycarbonyl-azetidine-3-carboxylic acid]
20.9 | CCC(CC)(CN1CCC(C(=O)Nc2ccc(Cl)cc2OC(F)F)(n2nccc2C(C)C)CC1)C(=O)O [Compound 67]
